Assay results from patent publication US20230031406A1, “COMPOUNDS AND COMPOSITIONS FOR TREATING CONDITIONS ASSOCIATED WITH NLRP ACTIVITY” (Novartis AG, priority 2018, published 2023).

Each compound was assayed on PMA-differentiated THP-1 cells (assay: IL-1β production in PMA-differentiated THP-1 cells stimulated with gramicidin (hTHP-1 assay containing 2% fetal bovine serum; Procedures 1 and 2)). Conditions: Homo sapiens, THP-1, Table B2; 2% fetal bovine serum; class symbols; read-out: hTHP-1 IC50.
Format: cell-based, human
Procedure, shortened: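 PMA-primed (20 ng/ml, 16-18 h) THP-1 cells in RPMI with 2% FBS, 50,000 cells/well, were preincubated 1 h with compound (0.0017-100 μM final, 0.37% DMSO), then stimulated 2 h with 5 μM gramicidin. Supernatant IL-1β measured by HTRF.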

Row | Compound | IC50 [µM]
1 | CC(C)(O)c1cc(C#N)cc(S(N)(=O)=NC(=O)Nc2c3c(nc4c2CCC4(C)C)CCC3)c1 (single isomer, unassigned) [Compound 674b, (R) or (S)-3-Cyano-N′-((3,3-dimethyl-1,2,3,5,6,7-hexahydrodicyclopenta [b,e]pyridin-8-yl)carbamoyl)-5-(2-hydroxypropan-2-yl)benzene-sulfonimidamide] | 1 to 5
2 | Cc1c(C2CC2)nc2c(c1NC(=O)N=S(N)(=O)c1ccn(C(F)F)n1)CCC2 (single isomer, unassigned) [Compound 676b, (R) or (S)-N′-((2-cyclopropyl-3-methyl-6,7-dihydro-5H-cyclopenta[b]pyridin-4-yl)carbamoyl)-1-(difluoromethyl)-1H-pyrazole-3-sulfonimidamide] | 1 to 5
3 | CC(C)(O)c1sc(S(N)(=O)=NC(=O)Nc2c3c(nc4c2CCC4)CCC3)cc1F (single isomer, unassigned) [Compound 678a, (R) or (S)-4-Fluoro-N′-((1,2,3,5,6,7-hexahydrodicyclopenta [b,e]pyridin-8-yl)carbamoyl)-5-(2-hydroxypropan-2-yl)thiophene-2-sulfonimidamide] | 1 to 5
4 | CC(C)n1cc(CO)c(S(N)(=O)=NC(=O)Nc2c3c(nc4c2CCC4(C)C)CCC3)n1 (single isomer, unassigned) [Compound 682b, (R) or (S)-N′-((3,3-dimethyl-1,2,3,5,6,7-hexahydrodicyclopenta [b,e]pyridin-8-yl)carbamoyl)-4-(hydroxymethyl)-1-isopropyl-1H-pyrazole-3-sulfonimidamide] | 1 to 5

Same assay, conditions: Homo sapiens, THP-1, Table B2; 2% fetal bovine serum; numeric bounds; read-out: hTHP-1 IC50

Row | Compound | IC50 [µM]
5 | CC(C)(O)c1ccc(S(N)(=O)=NC(=O)Nc2c3c(nc4c2CCC4(C)C)CCC3)cn1 (single isomer, unassigned) [Compound 673b, (S) or (R)-N′-((3,3-dimethyl-1,2,3,5,6,7-hexahydrodicyclopenta [b,e]pyridin-8-yl)carbamoyl)-6-(2-hydroxypropan-2-yl)pyridine-3-sulfonimidamide] | > 30
6 | CC(C)(O)c1cc(C#N)cc(S(N)(=O)=NC(=O)Nc2c3c(nc4c2CCC4(C)C)CCC3)c1 (single isomer, unassigned) [Compound 674a, (S) or (R)-3-Cyano-N′-((3,3-methyl-1,2,3,5,6,7-hexahydrodicyclopenta [b,e]pyridin-8-yl)carbamoyl)-5-(2-hydroxypropan-2-yl)benzene-sulfonimidamide] | > 30
7 | Cc1c(C2CC2)nc2c(c1NC(=O)N=S(N)(=O)c1ccn(C(F)F)n1)CCC2 (single isomer, unassigned) [Compound 676a, (S) or (R)-N′-((2-cyclopropyl-3-methyl-6,7-dihydro-5H-cyclopenta[b]pyridin-4-yl)carbamoyl)-1-(difluoromethyl)-1H-pyrazole-3-sulfonimidamide] | > 30
8 | CC(C)(O)c1sc(S(N)(=O)=NC(=O)Nc2c3c(nc4c2CCC4)CCC3)cc1F (single isomer, unassigned) [Compound 678b, (S) or (R)-4-Fluoro-N′-((1,2,3,5,6,7-hexahydrodicyclopenta [b,e]pyridin-8-yl)carbamoyl)-5-(2-hydroxypropan-2-yl)thiophene-2-sulfonimidamide] | > 30
9 | CC(C)n1cc(CO)c(S(N)(=O)=NC(=O)Nc2c3c(nc4c2CCC4(C)C)CCC3)n1 (single isomer, unassigned) [Compound 682a, (S) or (R)-N′-((3,3-dimethyl-1,2,3,5,6,7-hexahydrodicyclopenta [b,e]pyridin-8-yl)carbamoyl)-4-(hydroxymethyl)-1-isopropyl-1H-pyrazole-3-sulfonimidamide] | > 30

Same assay, conditions: Table B2; 2% fetal bovine serum; class symbols; read-out: hTHP-1 IC50

Row | Compound | IC50 [µM]
10 | CCc1c(C2CC2)nc2c(c1NC(=O)N=S(N)(=O)c1cnc(C(C)(C)O)s1)CCC2 (single isomer, unassigned) [Compound 675a, (R) or (S)-N′-((2-cyclopropyl-3-ethyl-6,7-dihydro-5H-cyclopenta[b]pyridin-4-yl)carbamoyl)-2-(2-hydroxypropan-2-yl)thiazole-5-sulfonimidamide] | 1 to 5
11 | CCc1c(C2CC2)nc2c(c1NC(=O)N=S(N)(=O)c1cnc(C(C)(C)O)s1)CCC2 (single isomer, unassigned) [Compound 675b, (S) or (R)-N′-((2-cyclopropyl-3-ethyl-6,7-dihydro-5H-cyclopenta[b]pyridin-4-yl)carbamoyl)-2-(2-hydroxypropan-2-yl)thiazole-5-sulfonimidamide] | 5 to 30
12 | CC(C)c1nc(CO)c(S(N)(=O)=NC(=O)Nc2c3c(nc4c2CCC4(C)C)CCC3)s1 (single isomer, unassigned) [Compound 680a, (S) or (R)-N′-((3,3-dimethyl-1,2,3,5,6,7-hexahydrodicyclopenta [b,e]pyridin-8-yl)carbamoyl)-4-(hydroxymethyl)-2-isopropylthiazole-5-sulfonimidamide] | 5 to 30
13 | CC(C)c1nc(CO)c(S(N)(=O)=NC(=O)Nc2c3c(nc4c2CCC4(C)C)CCC3)s1 (single isomer, unassigned) [Compound 680b, (R) or (S)-N′-((3,3-dimethyl-1,2,3,5,6,7-hexahydrodicyclopenta [b,e]pyridin-8-yl)carbamoyl)-4-(hydroxymethyl)-2-isopropylthiazole-5-sulfonimidamide] | 1 to 5
14 | Cc1c(C(C)C)nc2c(c1NC(=O)N=S(N)(=O)c1cc(C(C)(C)O)cs1)CCC2 (single isomer, unassigned) [Compound 681a, (S) or (R)-4-(2-Hydroxypropan-2-yl)-N′-((2-isopropyl-3-methyl-6,7-dihydro-5H-cyclopenta[b]pyridin-4-yl)carbamoyl) thiophene-2-sulfonimidamide] | 1 to 5
15 | Cc1c(C(C)C)nc2c(c1NC(=O)N=S(N)(=O)c1cc(C(C)(C)O)cs1)CCC2 (single isomer, unassigned) [Compound 681b, (R) or (S)-4-(2-Hydroxypropan-2-yl)-N′-((2-isopropyl-3-methyl-6,7-dihydro-5H-cyclopenta[b]pyridin-4-yl)carbamoyl) thiophene-2-sulfonimidamide] | 0.2 to 1
16 | CC(C)(O)c1cnc(S(N)(=O)=NC(=O)Nc2c3c(nc4c2CCC42CC2)CCC3)s1 (single isomer, unassigned) [Compound 683a, (R) or (S)-5-(2-Hydroxypropan-2-yl)-N′-((1′,5′,6′,7′-tetrahydro-2′H-spiro[cyclopropane-1,3′-dicyclopenta[b,e]pyridin]-8′-yl)carbamoyl) thiazole-2-sulfonimidamide] | 0.2 to 1
17 | CC(C)(O)c1cnc(S(N)(=O)=NC(=O)Nc2c3c(nc4c2CCC42CC2)CCC3)s1 (single isomer, unassigned) [Compound 683b, (S) or (R)-5-(2-Hydroxypropan-2-yl)-N′-((1′,5′,6′,7′-tetrahydro-2′H-spiro[cyclopropane-1,3′-dicyclopenta[b,e]pyridin]-8′-yl)carbamoyl)thiazole-2-sulfonimidamide] | 5 to 30
18 | CC(C)(O)c1cncc(S(N)(=O)=NC(=O)Nc2c3c(nc4c2CCC4(C)C)CCC3)c1 (single isomer, unassigned) [Compound 684a, (R) or (S)-N′-((3,3-dimethyl-1,2,3,5,6,7-hexahydrodicyclopenta [b,e]pyridin-8-yl)carbamoyl)-5-(2-hydroxypropan-2-yl)pyridine-3-sulfonimidamide] | 0.04 to 0.2
